Laboratory results published in patent publication US11096985B2, “Antimicrobial peptides, their variants and uses” (priority 2015, dated 2021).
Where a SMILES comes first, the peptide text is derived from it. [ ]: non-standard residue; d: D form.

What was measured:
[1] = test system: clinical strains of Serratia marcescens; assay: MIC, clinical strains of Serratia marcescens; format: cell-based; parameters: unit: µg/mL; details: microdilution, Muller Hinton broth-cation adjusted, 0.02% BSA, 0.2% acetic acid
Protocol: (§1) Minimum inhibition concentrations (MICs) were determined against Escherichia coli (ATCC 25922), Staphylococcus aureus (ATCC 25923), Klebsiella pneumoniae (ATCC 10031) and Pseudomonas aeruginosa (ATCC 27853). Also clinical strains of E. coli, K. pneumoniae, E. cloacae, P. aeruginosa, Serratia marcescens, Proteus mirabilis, S. pneumoniae, Acinetobacter baumannii, A. johnsonii and S. aureus were used for MICs assays. Additionally, clinical strains of yeast including Candida albicans, C. glabrata, C. parapsilosis and C. quillermondiae were used. The susceptibility of these microorganisms to Chain peptides were determined using micro broth dilution assay. Colonies of the respective microorganism from Muller Hinton (MH) agar plates incubated overnight were suspended in MH broth media and final concentration of microorganism was adjusted to 5.0×10^5 cfu/ml. An aliquot of 10 μl of each Chain peptide, or gentamicin, tetracycline as reference antibiotics were added in differing concentrations along with 90 μl of bacterial suspension to 96 well polypropylene plates and incubated at 37° C. for 20 to 24 hours. Concentrations of Chain peptides and reference antibiotics ranged from 0.125 to 128 μg/ml and the MICs were recorded as the lowest concentration with no visual growth of bacteria. Similarly, antifungal MICs were tested in Potato dextrose broth.
(§2) Clinical strains of yeasts including Candida albicans, C. glabrata, C. parapsilosis and C. quillermondiae were also tested with the 12 Chain peptides. The minimum inhibitory concentration (MICs) varied between these peptides and are presented in Tables 4a, 4b, 4c and 5a, 5b, 5c. Peptides Chain 105, 201 and 308 are broad spectrum antimicrobials with MICs between 0.5-32 μg/ml against all the bacteria and yeasts tested, except Serratia marcescens and Proteus mirabilis, against which the MICs were between 64-128 μg/ml. Peptide Chain 306 has narrow spectrum activity against E.coli at 1 μg/ml and for the rest of the bacterial strains at >32 μg/ml (FIG. 10).

[2] = test system: clinical strains of Enterobacter cloacae; assay: MIC, clinical strains of Enterobacter cloacae; format: cell-based; parameters: unit: μg/ml; details: microdilution, Muller Hinton broth-cation adjusted, 0.02% BSA, 0.2% acetic acid
Protocol: as §1, §2

[3] = test system: clinical strains of Staphylococcus aureus; assay: MIC, clinical strains of S. aureus; format: cell-based; parameters: unit: μg/ml; details: microdilution, Muller Hinton broth-cation adjusted, 0.02% BSA, 0.2% acetic acid
Protocol: as §1, §2

[4] = test system: clinical strains of C. quillermondiae; assay: MIC, clinical yeast strains, C. quillermondiae; format: cell-based; details: C. quillermondiae clinical yeast strain 1
Protocol: as §1, §2

[5] = test system: clinical strains of Candida albicans; assay: MIC, clinical yeast strains, Candida albicans; format: cell-based; parameters: unit: μg/ml
Protocol: as §1, §2

[6] = test system: clinical strains of Streptococcus pneumoniae; assay: MIC, clinical strains of Streptococcus pneumoniae; format: cell-based; parameters: unit: µg/mL; details: microdilution, Muller Hinton broth-cation adjusted, 0.02% BSA, 0.2% acetic acid
Protocol: as §1, §2

[7] = test system: clinical strains of Proteus mirabilis; assay: MIC, clinical strains of Proteus mirabilis; format: cell-based; parameters: unit: µg/mL; details: microdilution, Muller Hinton broth-cation adjusted, 0.02% BSA, 0.2% acetic acid
Protocol: as §1, §2

[8] = test system: clinical strains of C. parapsilosis; assay: MIC, clinical yeast strains, C. parapsilosis; format: cell-based, Candida parapsilosis; parameters: unit: μg/ml
Protocol: as §1, §2

[9] = test system: clinical strains of Klebsiella pneumoniae; assay: MIC, clinical strains of K. pneumoniae; format: cell-based; parameters: unit: μg/ml; details: microdilution, Muller Hinton broth-cation adjusted, 0.02% BSA, 0.2% acetic acid
Protocol: as §1, §2

[10] = test system: clinical strains of Pseudomonas aeruginosa; assay: MIC, clinical strains of P. aeruginosa; format: cell-based; parameters: unit: μg/ml; details: microdilution, Muller Hinton broth-cation adjusted, 0.02% BSA, 0.2% acetic acid
Protocol: as §1, §2

[11] = test system: clinical strains of C. glabrata; assay: MIC, clinical yeast strains, C. glabrata; format: cell-based, Candida glabrata; parameters: unit: μg/ml
Protocol: as §1, §2

[12] = test system: clinical strains of Escherichia coli; assay: MIC, clinical strains of E. coli; format: cell-based; parameters: unit: μg/ml; details: microdilution, Muller Hinton broth-cation adjusted, 0.02% BSA, 0.2% acetic acid
Protocol: as §1, §2

CC[C@@H](C)[C@@H](N)C(=O)N[C@H](Cc1c[nH]c2ccccc12)C(=O)N[C@H](CCCCN)C(=O)N[C@H](CCCNC(=N)N)C(=O)N[C@H](Cc1ccccc1)C(=O)N[C@H](CCCNC(=N)N)C(=O)N[C@H](CC(C)C)C(=O)N[C@H](Cc1ccccc1)C(=O)N[C@H](CCCCN)C(=O)N[C@H](CCCCN)C(=O)N[C@H](Cc1c[nH]c2ccccc12)C(=O)O [Chain304D] (H-[dI][dW][dK][dR][dF][dR][dL][dF][dK][dK][dW]-OH)
Minimum inhibitory concentration ([1]; Serratia marcescens clinical strain 1): >128
Minimum inhibitory concentration ([1]; Serratia marcescens clinical strain 2): >128
Minimum inhibitory concentration ([1]; Serratia marcescens clinical strain 3): >128
Minimum inhibitory concentration ([1]; Serratia marcescens clinical strain 4): >128
Minimum inhibitory concentration ([1]; Serratia marcescens clinical strain 5): >128
Minimum inhibitory concentration ([2]; Enterobacter cloacae clinical strain 1): 64
Minimum inhibitory concentration ([2]; Enterobacter cloacae clinical strain 2): 64
Minimum inhibitory concentration ([2]; Enterobacter cloacae clinical strain 3): 128
Minimum inhibitory concentration ([2]; Enterobacter cloacae clinical strain 4): 128
Minimum inhibitory concentration ([2]; Enterobacter cloacae clinical strain 5): 32
Minimum inhibitory concentration ([3]; Staphylococcus aureus clinical strain 1): 32
Minimum inhibitory concentration ([3]; Staphylococcus aureus clinical strain 2): 32
Minimum inhibitory concentration ([3]; Staphylococcus aureus clinical strain 3): 16
Minimum inhibitory concentration ([3]; Staphylococcus aureus clinical strain 4): 16
Minimum inhibitory concentration ([3]; Staphylococcus aureus clinical strain 5): 16
Minimum inhibitory concentration [4]: 16
Minimum inhibitory concentration ([5]; Candida albicans clinical yeast strain 1): 16
Minimum inhibitory concentration ([5]; Candida albicans clinical yeast strain 2): 16
Minimum inhibitory concentration ([5]; Candida albicans clinical yeast strain 3): 16
Minimum inhibitory concentration ([5]; Candida albicans clinical yeast strain 4): 16
Minimum inhibitory concentration ([5]; Candida albicans clinical yeast strain 5): 32
Minimum inhibitory concentration ([6]; Streptococcus pneumoniae clinical strain 1): 128
Minimum inhibitory concentration ([6]; Streptococcus pneumoniae clinical strain 2): 128
Minimum inhibitory concentration ([6]; Streptococcus pneumoniae clinical strain 3): 128
Minimum inhibitory concentration ([6]; Streptococcus pneumoniae clinical strain 4): 128
Minimum inhibitory concentration ([6]; Streptococcus pneumoniae clinical strain 5): 64
Minimum inhibitory concentration ([7]; Proteus mirabilis clinical strain 1): >128
Minimum inhibitory concentration ([7]; Proteus mirabilis clinical strain 2): >128
Minimum inhibitory concentration ([7]; Proteus mirabilis clinical strain 3): >128
Minimum inhibitory concentration ([7]; Proteus mirabilis clinical strain 4): >128
Minimum inhibitory concentration ([7]; Proteus mirabilis clinical strain 5): >128
Minimum inhibitory concentration ([8]; C. parapsilosis clinical yeast strain 1): 64
Minimum inhibitory concentration ([8]; C. parapsilosis clinical yeast strain 2): 64
Minimum inhibitory concentration ([8]; C. parapsilosis clinical yeast strain 3): 32
Minimum inhibitory concentration ([8]; C. parapsilosis clinical yeast strain 4): 16
Minimum inhibitory concentration ([9]; Klebsiella pneumoniae clinical strain 1): >128
Minimum inhibitory concentration ([9]; Klebsiella pneumoniae clinical strain 2): >128
Minimum inhibitory concentration ([9]; Klebsiella pneumoniae clinical strain 3): >128
Minimum inhibitory concentration ([9]; Klebsiella pneumoniae clinical strain 4): >128
Minimum inhibitory concentration ([9]; Klebsiella pneumoniae clinical strain 5): 64
Minimum inhibitory concentration ([10]; Pseudomonas aeruginosa clinical strain 1): 32
Minimum inhibitory concentration ([10]; Pseudomonas aeruginosa clinical strain 2): 64
Minimum inhibitory concentration ([10]; Pseudomonas aeruginosa clinical strain 3): 64
Minimum inhibitory concentration ([10]; Pseudomonas aeruginosa clinical strain 4): 64
Minimum inhibitory concentration ([10]; Pseudomonas aeruginosa clinical strain 5): 16
Minimum inhibitory concentration ([11]; C. glabrata clinical yeast strain 1): 16
Minimum inhibitory concentration ([11]; C. glabrata clinical yeast strain 2): 16
Minimum inhibitory concentration ([11]; C. glabrata clinical yeast strain 3): 8
Minimum inhibitory concentration ([11]; C. glabrata clinical yeast strain 4): 64
Minimum inhibitory concentration ([12]; Escherichia coli clinical strain 1): 1
Minimum inhibitory concentration ([12]; Escherichia coli clinical strain 2): 16
Minimum inhibitory concentration ([12]; Escherichia coli clinical strain 3): 16
Minimum inhibitory concentration ([12]; Escherichia coli clinical strain 4): 32
Minimum inhibitory concentration ([12]; Escherichia coli clinical strain 5): 32
